Measurements: USRE48461E1, “Modulation of androgen receptor expression” (Ionis Pharmaceuticals, Inc., priority 2012, dated 2021)

Assays:
Type in all cases: cell-based, human
PSA mRNA [1] = test: PSA expression in C4-2B cells (Example 30); conditions: 48 hrs
In short: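 C4-2B cells were plated at 1,000 cells per well in complete medium, or at 2,000 cells per well in CSS medium with 1 nM DHT. ISIS 549148 served as the negative control. AR, PSA and TMPRSS2 RNA levels were measured after 48 hrs.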

PSA mRNA [2] = test: PSA expression in VCaP cells; conditions: RNAiMax, 48 hrs
C4-2B cells = test: C4-2B cell proliferation (complete or CSS+DHT medium; Example 30); conditions: C4-2B cells, 5 days
Protocol: After a treatment period of 5 days in complete medium or CSS+1 nM DHT medium, the proliferative capacity of the cancer cells was measured with using CellTiter 96® AQueous One or CellTiter-Glo® Solution Cell Proliferation kit (Promega), following the manufacturer's instructions.

TMPRSS2 mRNA = test: TMPRSS2 expression in C4-2 cells; conditions: 48 hrs; for Percent inhibition of TMPRSS2 expression: C4-2 cells, CSS + DHT medium
Protocol: (§1) Cells were plated at 1,000 cells per well. […] After an incubation period of 48 hrs, RNA levels of AR, PSA and TMPRSS2 were measured.
(§2) Cells were plated at 2,000 cells per well and cultured in CSS media with 1 nM DHT. […] After an incubation period of 48 hrs, RNA levels of AR, PSA and TMPRSS2 were measured.

22RV1 cells = test: 22RV1 cell proliferation (Example 32); conditions: 22RV1 cells, complete medium, 5 days
In short: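 Cells were treated for 5 days in complete medium. Proliferation was then read with a tetrazolium (AQueous One) or ATP-luminescence (CellTiter-Glo) assay.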

full length AR mRNA = test: Full-length AR RNA in VCaP cells (complete, CSS+DHT medium); conditions: RNAiMax, 48 hrs
Protocol: Cells were plated at 10,000 cells per well. […] After an incubation period of 48 hrs, RNA levels of full length AR, the V7 variant, PSA and TMPRSS2 were measured.
After an incubation period of 48 hrs, RNA levels of full length AR, the V7 variant, PSA and TMPRSS2 were measured. The data is presented in Tables 108 expressed as percent expression of gene levels compared to the untreated control.
Cells were plated at 15,000 cells per well and cultured in CSS media for 16 hours. […] After 4 hrs, 1 nM DHT was added. […] After an incubation period of 48 hrs, RNA levels of AR, PSA and TMPRSS2 were measured.

AR mRNA = test: AR RNA expression in C4-2 cells (complete, CSS+DHT medium); conditions: 48 hrs; for Percent expression of AR: C4-2 cells, CSS + DHT medium
Protocol: as §1, §2

VCaP cells = test: VCaP cell proliferation; conditions: VCaP cells, 5 days
In short: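 VCaP cells treated 5 days in complete medium or charcoal-stripped serum medium with 1 nM DHT; proliferation read by CellTiter 96 AQueous One or CellTiter-Glo.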

## GGCTACTACGCCGTCA (3-10-3 (S)-cEt gapmer, chemistry not fully specified) [ISIS 549148, reference compound]
PSA mRNA [1]; CSS + DHT medium, 0.04 μM
  Percent inhibition of PSA expression: 0%
PSA mRNA [1]; CSS + DHT medium, 0.2 μM
  Percent inhibition of PSA expression: 0%
PSA mRNA [1]; CSS + DHT medium, 1 μM
  Percent inhibition of PSA expression: 0%
PSA mRNA [1]; CSS + DHT medium, 5.0 μM
  Percent inhibition of PSA expression: 0%
PSA mRNA [1]; complete medium, 0.04 μM
  Percent inhibition of PSA expression: 3%
PSA mRNA [1]; complete medium, 0.2 μM
  Percent inhibition of PSA expression: 11%
PSA mRNA [1]; complete medium, 1 μM
  Percent inhibition of PSA expression: 18%
PSA mRNA [1]; complete medium, 5.0 μM
  Percent inhibition of PSA expression: 14%
PSA mRNA [2]; CSS + DHT medium, 1.34 nM
  Percent inhibition of PSA expression: 0%
PSA mRNA [2]; CSS + DHT medium, 4.0 nM
  Percent inhibition of PSA expression: 3%
PSA mRNA [2]; CSS + DHT medium, 13.4 nM
  Percent inhibition of PSA expression: 9%
PSA mRNA [2]; CSS + DHT medium, 40 nM
  Percent inhibition of PSA expression: 0%
PSA mRNA [2]; complete medium, 1.34 nM
  Percent inhibition of PSA expression: 2%
PSA mRNA [2]; complete medium, 4.0 nM
  Percent inhibition of PSA expression: 0%
PSA mRNA [2]; complete medium, 13.4 nM
  Percent inhibition of PSA expression: 0%
PSA mRNA [2]; complete medium, 40 nM
  Percent inhibition of PSA expression: 20%
C4-2B cells; CSS + DHT medium, 0.04 μM
  Proliferation (% untreated control): 109 % untreated control
C4-2B cells; CSS + DHT medium, 0.2 μM
  Proliferation (% untreated control): 131 % untreated control
C4-2B cells; CSS + DHT medium, 1 μM
  Proliferation (% untreated control): 119 % untreated control
C4-2B cells; CSS + DHT medium, 5.0 μM
  Proliferation (% untreated control): 114 % untreated control
C4-2B cells; complete medium, 0.04 μM
  Proliferation (% untreated control): 119 % untreated control
C4-2B cells; complete medium, 0.2 μM
  Proliferation (% untreated control): 97 % untreated control
C4-2B cells; complete medium, 1 μM
  Proliferation (% untreated control): 103 % untreated control
C4-2B cells; complete medium, 5.0 μM
  Proliferation (% untreated control): 98 % untreated control
TMPRSS2 mRNA; 0.04 μM
  Percent inhibition of TMPRSS2 expression: 3%
  Percent inhibition of TMPRSS2 expression in C4-2 cells cultured in complete medium: 2%
TMPRSS2 mRNA; 0.2 μM
  Percent inhibition of TMPRSS2 expression: 0%
  Percent inhibition of TMPRSS2 expression in C4-2 cells cultured in complete medium: 7%
TMPRSS2 mRNA; 1 μM
  Percent inhibition of TMPRSS2 expression: 22%
  Percent inhibition of TMPRSS2 expression in C4-2 cells cultured in complete medium: 10%
TMPRSS2 mRNA; 5.0 μM
  Percent inhibition of TMPRSS2 expression: 28%
  Percent inhibition of TMPRSS2 expression in C4-2 cells cultured in complete medium: 0%
22RV1 cells; 1.34 nM
  Proliferation (% untreated control): 97 % untreated control
22RV1 cells; 4.0 nM
  Proliferation (% untreated control): 97 % untreated control
22RV1 cells; 13.4 nM
  Proliferation (% untreated control): 101 % untreated control
22RV1 cells; 40 nM
  Proliferation (% untreated control): 83 % untreated control
Full length AR mRNA; CSS medium, 1.34 nM
  Percent inhibition of full-length AR: 0%
Full length AR mRNA; CSS medium, 4.0 nM
  Percent inhibition of full-length AR: 0%
Full length AR mRNA; CSS medium, 13.4 nM
  Percent inhibition of full-length AR: 0%
Full length AR mRNA; CSS medium, 40 nM
  Percent inhibition of full-length AR: 0%
Full length AR mRNA; complete medium, 1.34 nM
  Percent inhibition of full-length AR: 0%
Full length AR mRNA; complete medium, 4.0 nM
  Percent inhibition of full-length AR: 8%
Full length AR mRNA; complete medium, 13.4 nM
  Percent inhibition of full-length AR: 5%
Full length AR mRNA; complete medium, 40 nM
  Percent inhibition of full-length AR: 17%
AR mRNA; 0.04 μM
  Percent expression of AR: 101%
  Percent expression of AR in C4-2 cells cultured in complete medium: 89%
AR mRNA; 0.2 μM
  Percent expression of AR: 101%
  Percent expression of AR in C4-2 cells cultured in complete medium: 90%
AR mRNA; 1 μM
  Percent expression of AR: 118%
  Percent expression of AR in C4-2 cells cultured in complete medium: 84%
AR mRNA; 5.0 μM
  Percent expression of AR in C4-2 cells cultured in complete medium: 86%
VCaP cells; CSS + DHT medium, 1.34 nM
  Proliferation (% untreated control): 114 % untreated control
VCaP cells; CSS + DHT medium, 4.0 nM
  Proliferation (% untreated control): 123 % untreated control
VCaP cells; CSS + DHT medium, 13.4 nM
  Proliferation (% untreated control): 104 % untreated control
VCaP cells; CSS + DHT medium, 40 nM
  Proliferation (% untreated control): 92 % untreated control
VCaP cells; complete medium, 1.34 nM
  Proliferation (% untreated control): 98 % untreated control
VCaP cells; complete medium, 4.0 nM
  Proliferation (% untreated control): 98 % untreated control
VCaP cells; complete medium, 13.4 nM
  Proliferation (% untreated control): 113 % untreated control
VCaP cells; complete medium, 40 nM
  Proliferation (% untreated control): 106 % untreated control
